Assay results from publication PMC11374673, “Discovery of isoquinoline sulfonamides as allosteric gyrase inhibitors with activity against fluoroquinolone-resistant bacteria” (Nature Chemistry, 2024).
In brackets after ≈: the same amount, converted by molar mass. Several values for one entry are separate records, joined by “and”; a condition that tells them apart may be missing. Equal values may be shown once. Entries after “also recorded” stand apart in the source; their conditions may differ.

Experiments:
E. coli W3110 [1] = assay: Checkerboard assay with PMBN;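 for checkerboard plate reading, Average values: OD600 read after 20 h incubation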;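 for checkerboard plate reading, replicate wells: OD600 read after 20 h incubation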
E. coli W3110 [2] = assay: MIC by broth microdilution; assay type: cell-based, Escherichia coli; conditions: Escherichia coli, W3110, WT, broth microdilution; read-out: MIC E. coli W3110
Summary of the method: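 Exponential-phase cultures (OD600 0.5, 37 °C aerobic), diluted 100-fold in CAMHB, were added to twofold compound dilution series. Keio strains grown with 50 µg ml^−1 kanamycin. Plates incubated overnight at 37 °C, shaking at 600 r.p.m.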

O=S(=O)(NC[C@@H]1CC[C@H](c2ccc(-c3cccnc3)cc2)N1)c1cccc2cnccc12 [LEI-800]
checkerboard plate reading, Average values (E. coli W3110 [1]; LEI-800 0.390625 µM + PMBN 0 µM (by position)): 0.4881 | checkerboard plate reading, Average values (E. coli W3110 [1]; LEI-800 0.390625 µM + PMBN 0.5 µM (by position)): 0.4714 | checkerboard plate reading, Average values (E. coli W3110 [1]; LEI-800 0.390625 µM + PMBN 1 µM (by position)): 0.4607 | checkerboard plate reading, Average values (E. coli W3110 [1]; LEI-800 0.390625 µM + PMBN 2 µM (by position)): 0.4461 | checkerboard plate reading, Average values (E. coli W3110 [1]; LEI-800 0.390625 µM + PMBN 4 µM (by position)): 0.399 | checkerboard plate reading, Average values (E. coli W3110 [1]; LEI-800 0.390625 µM + PMBN 8 µM (by position)): 0.3657 | checkerboard plate reading, Average values (E. coli W3110 [1]; LEI-800 0.390625 µM + PMBN 16 µM (by position)): 0.3222 | checkerboard plate reading, Average values (E. coli W3110 [1]; LEI-800 0.390625 µM + PMBN 32 µM (by position)): 0.2778 | checkerboard plate reading, Average values (E. coli W3110 [1]; LEI-800 0.78125 µM + PMBN 0 µM (by position)): 0.4191 | checkerboard plate reading, Average values (E. coli W3110 [1]; LEI-800 0.78125 µM + PMBN 0.5 µM (by position)): 0.3258 | checkerboard plate reading, Average values (E. coli W3110 [1]; LEI-800 0.78125 µM + PMBN 1 µM (by position)): 0.2348 | checkerboard plate reading, Average values (E. coli W3110 [1]; LEI-800 0.78125 µM + PMBN 2 µM (by position)): 0.1359 | checkerboard plate reading, Average values (E. coli W3110 [1]; LEI-800 0.78125 µM + PMBN 4 µM (by position)): 0.1369 | checkerboard plate reading, Average values (E. coli W3110 [1]; LEI-800 0.78125 µM + PMBN 8 µM (by position)): 0.1405 | checkerboard plate reading, Average values (E. coli W3110 [1]; LEI-800 0.78125 µM + PMBN 16 µM (by position)): 0.1463 | checkerboard plate reading, Average values (E. coli W3110 [1]; LEI-800 0.78125 µM + PMBN 32 µM (by position)): 0.1515 | checkerboard plate reading, Average values (E. coli W3110 [1]; LEI-800 1.5625 µM + PMBN 0 µM (by position)): 0.3277 | checkerboard plate reading, Average values (E. coli W3110 [1]; LEI-800 1.5625 µM + PMBN 0.5 µM (by position)): 0.2628 | checkerboard plate reading, replicate wells (E. coli W3110 [1]; LEI-800 1.5625 µM + PMBN 1 µM): 0.1569 | checkerboard plate reading, Average values (E. coli W3110 [1]; LEI-800 1.5625 µM + PMBN 1 µM (by position)): 0.2051 | checkerboard plate reading, replicate wells (E. coli W3110 [1]; LEI-800 1.5625 µM + PMBN 2 µM): 0.1524 and 0.1433 and 0.1454 | checkerboard plate reading, Average values (E. coli W3110 [1]; LEI-800 1.5625 µM + PMBN 2 µM (by position)): 0.1478 | checkerboard plate reading, replicate wells (E. coli W3110 [1]; LEI-800 1.5625 µM + PMBN 4 µM): 0.1452 and 0.1502 and 0.1384 | checkerboard plate reading, Average values (E. coli W3110 [1]; LEI-800 1.5625 µM + PMBN 4 µM (by position)): 0.1494 | checkerboard plate reading, Average values (E. coli W3110 [1]; LEI-800 1.5625 µM + PMBN 8 µM (by position)): 0.1497 | checkerboard plate reading, Average values (E. coli W3110 [1]; LEI-800 1.5625 µM + PMBN 16 µM (by position)): 0.1521 | checkerboard plate reading, Average values (E. coli W3110 [1]; LEI-800 1.5625 µM + PMBN 32 µM (by position)): 0.1528 | checkerboard plate reading, replicate wells (E. coli W3110 [1]; LEI-800 3.125 µM + PMBN 0 µM): 0.2026 and 0.2019 and 0.1984 | checkerboard plate reading, Average values (E. coli W3110 [1]; LEI-800 3.125 µM + PMBN 0 µM (by position)): 0.201 | checkerboard plate reading, replicate wells (E. coli W3110 [1]; LEI-800 3.125 µM + PMBN 0.5 µM): 0.1489 and 0.151 and 0.1511 | checkerboard plate reading, replicate wells (E. coli W3110 [1]; LEI-800 3.125 µM + PMBN 1 µM): 0.1556 and 0.1491 and 0.1492 | checkerboard plate reading, Average values (E. coli W3110 [1]; LEI-800 3.125 µM + PMBN 1 µM (by position)): 0.1661 | checkerboard plate reading, replicate wells (E. coli W3110 [1]; LEI-800 3.125 µM + PMBN 2 µM): 0.1469 and 0.1488 and 0.1457 | checkerboard plate reading, Average values (E. coli W3110 [1]; LEI-800 3.125 µM + PMBN 2 µM (by position)): 0.1503 | checkerboard plate reading, replicate wells (E. coli W3110 [1]; LEI-800 3.125 µM + PMBN 4 µM): 0.1605 and 0.1486 and 0.1531 | checkerboard plate reading, Average values (E. coli W3110 [1]; LEI-800 3.125 µM + PMBN 4 µM (by position)): 0.1504 | checkerboard plate reading, replicate wells (E. coli W3110 [1]; LEI-800 3.125 µM + PMBN 8 µM): 0.1502 and 0.1529 and 0.1524 | checkerboard plate reading, Average values (E. coli W3110 [1]; LEI-800 3.125 µM + PMBN 8 µM (by position)): 0.1498 | checkerboard plate reading, replicate wells (E. coli W3110 [1]; LEI-800 3.125 µM + PMBN 16 µM): 0.1512 and 0.151 and 0.1573 | checkerboard plate reading, Average values (E. coli W3110 [1]; LEI-800 3.125 µM + PMBN 16 µM (by position)): 0.1513 | checkerboard plate reading, replicate wells (E. coli W3110 [1]; LEI-800 3.125 µM + PMBN 32 µM): 0.1461 and 0.1492 and 0.1481 | checkerboard plate reading, Average values (E. coli W3110 [1]; LEI-800 3.125 µM + PMBN 32 µM (by position)): 0.1506 | MIC E. coli + 8 μM PMBN (E. coli W3110 [1]; LPS disruption (pharmacological)): 0.4 µM | synergy with PMBN (E. coli W3110 [1]; checkerboard): potentiates; also recorded: Clear synergy | MSC (E. coli W3110 [1]; checkerboard with PMBN, E. coli W3110): 0.39 µM | MIC (E. coli W3110 [2]): 3.1 µM (≈ 1.38 µg/mL)
